ChEMBL document CHEMBL1127792, “Total synthesis and biological properties of novel antineoplastic (chloromethyl)furanoindolines: an asymmetric hydroboration mediated synthesis of the alkylation subunits” (J Med Chem, 1994)
In brackets after ≈: the same amount, converted by molar mass.

What was measured:
T222 [1] = assay: Concentration for 50% growth inhibition relative to untreated control in the human lung epidermoid carcinoma (T222) cell line; Not active; format: functional, cell-based
T222 [2] = assay: Concentration for 50% growth inhibition relative to untreated control in the human lung epidermoid carcinoma (T222) cell line; format: functional, cell-based
Nucleic Acid [3] = assay: Relative concentration of compound for alkylation of w794 DNA is detected at incubation condition of 4 degrees C for 24 hr; Range is 0.01-0.006; format: functional
Nucleic Acid [4] = assay: Relative concentration of compound for alkylation of w794 DNA detected at incubation condition of 4 degrees C for 24 hr; Range is 1.0-0.2; format: functional
Mus musculus [5] = assay: Acute toxicity was measured as ratio of number of mice that died to the 5 mice in test group on a dose of 0.4 mg/Kg; format: organism-based; settings: in vivo
Mus musculus [6] = assay: Acute toxicity was measured as ratio of number of mice that died to the 5 mice in test group on a dose of 0.2 mg/Kg; format: organism-based; settings: in vivo
Mus musculus [7] = assay: Percent inhibition against [3H]leucine uptake at a dose of 0.05 mg/Kg in mouse bearing a T222 tumor burden; format: functional
Mus musculus [8] = assay: Percent inhibition against [3H]leucine uptake at a dose of 0.2 mg/Kg in a mouse bearing a T222 tumor burden; format: functional
Mus musculus [9] = assay: Acute toxicity was measured as ratio of number of mice that died to the 5 mice in the test group on a dose of 0.05 mg/Kg; format: organism-based; settings: in vivo
Mus musculus [10] = assay: Acute toxicity was measured as ratio of number of mice that died to the 5 mice in test group on a dose of 0.1 mg/Kg; format: organism-based; settings: in vivo
Mus musculus [11] = assay: Percent inhibition against [3H]-Leucine uptake at a dose of 0.1 mg/Kg in a mouse bearing a T222 tumor burden; format: functional

Cc1coc2c(O)cc3c(c12)C(C)(C)CN3C(=O)c1cc2cc(NC(=O)c3cc4ccccc4[nH]3)ccc2[nH]1
IC50 (T222 [1]): Not Active

Cc1coc2c(O)cc3c(c12)[C@H](CCl)CN3C(=O)c1cc2cc(NC(=O)c3cc4ccccc4s3)ccc2[nH]1
IC50 (T222 [2]): 0.2 ng/mL (≈ 0.36 nM)

Cc1coc2c(O)cc3c(c12)[C@H](CCl)CN3C(=O)c1cc2cc(NC(=O)c3cc4ccccc4s3)ccc2s1
IC50 (T222 [2]): 0.2 ng/mL (≈ 0.349 nM)

Cc1coc2c(O)cc3c(c12)[C@@H](CCl)CN3C(=O)c1cc2cc(NC(=O)c3cc4ccccc4[nH]3)ccc2[nH]1
Efficiency (Nucleic Acid [3]): 0.006

Cc1coc2c(O)cc3c(c12)C(CCl)CN3C(=O)c1cc2cc(NC(=O)c3cc4ccccc4[nH]3)ccc2[nH]1 (single isomer, unassigned)
Efficiency (Nucleic Acid [4]): 0.2 | Toxicity (Mus musculus [5]): 5 | Toxicity (Mus musculus [6]): 1 | inhibition in vivo at 0.05 mg/kg (Mus musculus [7]): 68% | inhibition in vivo at 0.2 mg/kg (Mus musculus [8]): 85% | Toxicity (Mus musculus [9]): 0 | Toxicity (Mus musculus [10]): 0 | inhibition in vivo at 0.1 mg/kg (Mus musculus [11]): 73%

CC[C@]1(O)C[C@@H]2CN(CCc3c([nH]c4ccccc34)[C@@](C(=O)OC)(c3cc4c(cc3OC)N(C)[C@H]3[C@@](O)(C(=O)NN)[C@H](O)[C@]5(CC)C=CCN6CC[C@]43[C@@H]65)C2)C1 [DESACETYLVINBLASTINEHYDRAZIDE]
IC50 (T222 [2]): 3 ng/mL (≈ 3.9 nM)
